# Results reported in ChEMBL document CHEMBL6074711, “Design, Synthesis, and Activity Evaluation of C-23-Modified 5-O-Mycaminosyltylonolide Derivatives” (ACS Med Chem Lett, 2024).
# Key:
# Staphylococcus aureus [1] = experiment: Antibacterial activity against Staphylococcus aureus ATCC25923 incubated for 16 to 20 hrs by broth microdilution method; assay type: functional; details: time 16-20 hrs
# Escherichia coli [2] = experiment: Antibacterial activity against Escherichia coli ATCC25922 incubated for 16 to 20 hrs by broth microdilution method; assay type: functional; details: time 16-20 hrs
# Enterococcus faecalis [3] = experiment: Antibacterial activity against Enterococcus faecalis ATCC29212 incubated for 16 to 20 hrs by broth microdilution method; assay type: functional; details: time 16-20 hrs
# [4] = system: Stenotrophomonas maltophilia; experiment: Antibacterial activity against Stenotrophomonas maltophilia ATCC17808 incubated for 16 to 20 hrs by broth microdilution method; assay type: functional; details: time 16-20 hrs
# Staphylococcus aureus [5] = experiment: Antibacterial activity against drug-resistant Staphylococcus aureus clinical isolate M20 incubated for 16 to 20 hrs by broth microdilution method; assay type: functional; details: time 16-20 hrs
# Escherichia coli [6] = experiment: Antibacterial activity against drug-resistant Escherichia coli clinical isolate 1322 incubated for 16 to 20 hrs by broth microdilution method; assay type: functional; details: time 16-20 hrs
# Escherichia coli [7] = experiment: Antibacterial activity against drug-resistant Escherichia coli clinical isolate 1333 incubated for 16 to 20 hrs by broth microdilution method; assay type: functional; details: time 16-20 hrs
# Staphylococcus aureus [8] = experiment: Bactericidal activity against Staphylococcus aureus ATCC25923 incubated for 20 to 24 hrs; assay type: functional; details: time 20-24 hrs
# Staphylococcus aureus [9] = experiment: Antibacterial activity against Staphylococcus aureus ATCC25923 incubated for 20 to 24 hrs; assay type: functional; details: time 20-24 hrs
# Staphylococcus aureus [10] = experiment: Ratio of MBC to MIC for Staphylococcus aureus ATCC25923 incubated for 20 to 24 hrs; assay type: functional; details: time 20-24 hrs
# Enterococcus faecalis [11] = experiment: Bactericidal activity against Enterococcus faecalis ATCC29212 incubated for 20 to 24 hrs; assay type: functional; details: time 20-24 hrs
# Enterococcus faecalis [12] = experiment: Antibacterial activity against Enterococcus faecalis ATCC29212 incubated for 20 to 24 hrs; assay type: functional; details: time 20-24 hrs
# Enterococcus faecalis [13] = experiment: Ratio of MBC to MIC for Enterococcus faecalis ATCC29212 incubated for 20 to 24 hrs; assay type: functional; details: time 20-24 hrs
# Escherichia coli [14] = experiment: Bactericidal activity against Escherichia coli ATCC25922 incubated for 20 to 24 hrs; assay type: functional; details: time 20-24 hrs
# Escherichia coli [15] = experiment: Antibacterial activity against Escherichia coli ATCC25922 incubated for 20 to 24 hrs; assay type: functional; details: time 20-24 hrs
# Escherichia coli [16] = experiment: Ratio of MBC to MIC for Escherichia coli ATCC25922 incubated for 20 to 24 hrs; assay type: functional; details: time 20-24 hrs
# [17] = system: Stenotrophomonas maltophilia; experiment: Bactericidal activity against Stenotrophomonas maltophilia ATCC17808 incubated for 20 to 24 hrs; assay type: functional; details: time 20-24 hrs
# [18] = system: Stenotrophomonas maltophilia; experiment: Antibacterial activity against Stenotrophomonas maltophilia ATCC17808 incubated for 20 to 24 hrs; assay type: functional; details: time 20-24 hrs
# [19] = system: Stenotrophomonas maltophilia; experiment: Ratio of MBC to MIC for Stenotrophomonas maltophilia ATCC17808 incubated for 20 to 24 hrs; assay type: functional; details: time 20-24 hrs
# Escherichia coli [20] = experiment: Induction of resistance development in Escherichia coli ATCC25922 treated daily with continuous passaging measured after 5 passages by absorbance based assay; assay type: functional; details: ATCC25922, 120 h, time 5 day
# Escherichia coli [21] = experiment: Induction of resistance development in Escherichia coli ATCC25922 treated daily with continuous passaging measured after 10 passages by absorbance based assay; assay type: functional; details: ATCC25922, 240 h, time 10 day
# Escherichia coli [22] = experiment: Induction of resistance development in Escherichia coli ATCC25922 treated daily with continuous passaging measured after 14 passages by absorbance based assay; assay type: functional; details: ATCC25922, 336 h, time 14 day
# Escherichia coli [23] = experiment: Antibacterial activity against Escherichia coli ATCC25922 at pH 6.80; assay type: functional
# Escherichia coli [24] = experiment: Antibacterial activity against Escherichia coli ATCC25922 at pH 7; assay type: functional
# Escherichia coli [25] = experiment: Antibacterial activity against Escherichia coli ATCC25922 at pH 7.20; assay type: functional
# Escherichia coli [26] = experiment: Antibacterial activity against Escherichia coli ATCC25922 at pH 7.40; assay type: functional
# Escherichia coli [27] = experiment: Antibacterial activity against Escherichia coli ATCC25922 at pH 7.60; assay type: functional
# Escherichia coli [28] = experiment: Antibacterial activity against Escherichia coli ATCC25922 at pH 7.80; assay type: functional
# Staphylococcus aureus [29] = experiment: Antibacterial activity against Staphylococcus aureus ATCC25923 at pH 6.80; assay type: functional
# Staphylococcus aureus [30] = experiment: Antibacterial activity against Staphylococcus aureus ATCC25923 at pH 7; assay type: functional
# Staphylococcus aureus [31] = experiment: Antibacterial activity against Staphylococcus aureus ATCC25923 at pH 7.20; assay type: functional
# Staphylococcus aureus [32] = experiment: Antibacterial activity against Staphylococcus aureus ATCC25923 at pH 7.40; assay type: functional
# Staphylococcus aureus [33] = experiment: Antibacterial activity against Staphylococcus aureus ATCC25923 at pH 7.60; assay type: functional
# Staphylococcus aureus [34] = experiment: Antibacterial activity against Staphylococcus aureus ATCC25923 at pH 7.80; assay type: functional
# Escherichia coli [35] = experiment: Antibacterial activity against Escherichia coli ATCC25922 under 10^4 CFU/ml of bacterial inoculum culture by absorbance based assay; assay type: functional
# Escherichia coli [36] = experiment: Antibacterial activity against Escherichia coli ATCC25922 under 10^5 CFU/ml of bacterial inoculum culture by absorbance based assay; assay type: functional
# Escherichia coli [37] = experiment: Antibacterial activity against Escherichia coli ATCC25922 under 10^6 CFU/ml of bacterial inoculum culture by absorbance based assay; assay type: functional
# Escherichia coli [38] = experiment: Antibacterial activity against Escherichia coli ATCC25922 under 10^7 CFU/ml of bacterial inoculum culture by absorbance based assay; assay type: functional
# Staphylococcus aureus [39] = experiment: Antibacterial activity against Staphylococcus aureus ATCC25923 under 10^4 CFU/ml of bacterial inoculum culture by absorbance based assay; assay type: functional
# Staphylococcus aureus [40] = experiment: Antibacterial activity against Staphylococcus aureus ATCC25923 under 10^5 CFU/ml of bacterial inoculum culture by absorbance based assay; assay type: functional
# Staphylococcus aureus [41] = experiment: Antibacterial activity against Staphylococcus aureus ATCC25923 under 10^6 CFU/ml of bacterial inoculum culture by absorbance based assay; assay type: functional
# Staphylococcus aureus [42] = experiment: Antibacterial activity against Staphylococcus aureus ATCC25923 under 10^7 CFU/ml of bacterial inoculum culture by absorbance based assay; assay type: functional
# Staphylococcus aureus [43] = experiment: Bactericidal activity against Staphylococcus aureus ATCC25923 at MIC incubated for 10 to 12 hrs by time-kill assay relative to control; assay type: functional; details: time 10-12 hrs
# Escherichia coli [44] = experiment: Bactericidal activity against Escherichia coli ATCC25922 at MIC incubated for 5 hrs by time-kill assay relative to control; assay type: functional
# Staphylococcus aureus [45] = experiment: Induction of resistance development in Staphylococcus aureus ATCC25923 at 0.5 times MIC treated daily with continuous passaging measured for 20 passages by absorbance based assay; assay type: functional, organism-based; details: time 20.0 day
# Staphylococcus aureus [46] = experiment: Induction of resistance development in Staphylococcus aureus ATCC25923 treated daily with continuous passaging measured after 7 passages by absorbance based assay; assay type: functional; details: ATCC25923, 168 h, time 7 day
# Staphylococcus aureus [47] = experiment: Induction of resistance development in Staphylococcus aureus ATCC25923 treated daily with continuous passaging measured after 13 passages by absorbance based assay; assay type: functional; details: ATCC25923, 312 h, time 13 day
# Escherichia coli [48] = experiment: Induction of resistance development in Escherichia coli ATCC25922 treated daily with continuous passaging measured for 20 passages by absorbance based assay; assay type: functional, organism-based; details: time 20.0 day
# Escherichia coli [49] = experiment: Induction of resistance development in Escherichia coli ATCC25922 treated daily with continuous passaging measured after 8 passages by absorbance based assay; assay type: functional; details: ATCC25922, 192 h, time 8 day
# Escherichia coli [50] = experiment: Induction of resistance development in Escherichia coli ATCC25922 treated daily with continuous passaging measured after 12 passages by absorbance based assay; assay type: functional; details: ATCC25922, 288 h, time 12 day
# Escherichia coli [51] = experiment: Induction of resistance development in Escherichia coli ATCC25922 treated daily with continuous passaging measured after 19 passages by absorbance based assay; assay type: functional; details: ATCC25922, 456 h, time 19 day
# [52] = Cytotoxicity against mouse HT-22 cells incubated for 72 hrs by MTT assay; assay type: toxicity, cell-based
# [53] = Selectivity index, ratio of IC50 for mouse HT-22 cells to MIC for methicillin-resistant Staphylococcus aureus; assay type: toxicity, cell-based
# [54] = Toxicity in Kunming mouse assessed as histopathological changes in heart at 80 mg/kg/day, IG measured for 1 week; assay type: organism-based; details: in vivo, po, 168 h, time 1 weeks
# [55] = Toxicity in Kunming mouse assessed as histopathological changes in liver at 80 mg/kg/day, IG measured for 1 week; assay type: organism-based; details: in vivo, po, 168 h, time 1 weeks
# [56] = Toxicity in Kunming mouse assessed as histopathological changes in spleen at 80 mg/kg/day, IG measured for 1 week; assay type: organism-based; details: in vivo, po, 168 h, time 1 weeks
# [57] = Toxicity in Kunming mouse assessed as histopathological changes in lung at 80 mg/kg/day, IG measured for 1 week; assay type: organism-based; details: in vivo, po, 168 h, time 1 weeks
# [58] = Toxicity in Kunming mouse assessed as histopathological changes in kidney at 80 mg/kg/day, IG measured for 1 week; assay type: organism-based; details: in vivo, po, 168 h, time 1 weeks
structure (smiles),measurement,setting,value
CC[C@H]1OC(=O)C[C@@H](O)[C@H](C)[C@@H](O[C@@H]2O[C@H](C)[C@@H](O)[C@H](N(C)C)[C@H]2O)[C@@H](CCNCc2cn(-c3cnc4ccccc4c3)nn2)C[C@@H](C)C(=O)/C=C/C(C)=C/[C@@H]1CNCc1ccc(C)cc1,MIC,Staphylococcus aureus [1],0.5 µg/mL
same,MIC,Escherichia coli [2],1 µg/mL
same,MIC,Enterococcus faecalis [3],1 µg/mL
same,MIC,[4],1 µg/mL
same,MIC,Staphylococcus aureus [5],0.5 µg/mL
same,MIC,Escherichia coli [6],1 µg/mL
same,MIC,Escherichia coli [7],4 µg/mL
same,MBC,Staphylococcus aureus [8],1 µg/mL
same,MIC,Staphylococcus aureus [9],0.5 µg/mL
same,Ratio,Staphylococcus aureus [10],2
same,MBC,Enterococcus faecalis [11],8 µg/mL
same,MIC,Enterococcus faecalis [12],1 µg/mL
same,Ratio,Enterococcus faecalis [13],2
same,MBC,Escherichia coli [14],1 µg/mL
same,MIC,Escherichia coli [15],0.5 µg/mL
same,Ratio,Escherichia coli [16],2
same,MBC,[17],4 µg/mL
same,MIC,[18],2 µg/mL
same,Ratio,[19],2
CS(=O)(=O)c1ccc([C@@H](O)[C@@H](CF)NC(=O)C(Cl)Cl)cc1 [FLORFENICOL],MIC,Escherichia coli [20],8 µg/mL
same,MIC,Escherichia coli [21],16 µg/mL
same,MIC,Escherichia coli [22],32 µg/mL
CC[C@H]1OC(=O)C[C@@H](O)[C@H](C)[C@@H](O[C@@H]2O[C@H](C)[C@@H](O)[C@H](N(C)C)[C@H]2O)[C@@H](CCN(C)Cc2cn(-c3cnc4ccccc4c3)nn2)C[C@@H](C)C(=O)/C=C/C(C)=C/[C@@H]1CNCc1cccc(C)c1,MIC,Staphylococcus aureus [1],0.5 µg/mL
same,MIC,Escherichia coli [2],0.5 µg/mL
same,MIC,Enterococcus faecalis [3],1 µg/mL
same,MIC,[4],2 µg/mL
same,MIC,Staphylococcus aureus [5],0.5 µg/mL
same,MIC,Escherichia coli [6],0.5 µg/mL
same,MIC,Escherichia coli [7],1 µg/mL
same,MBC,Staphylococcus aureus [8],2 µg/mL
same,MIC,Staphylococcus aureus [9],0.5 µg/mL
same,Ratio,Staphylococcus aureus [10],2
same,MBC,Enterococcus faecalis [11],8 µg/mL
same,MIC,Enterococcus faecalis [12],1 µg/mL
same,Ratio,Enterococcus faecalis [13],4
same,MBC,Escherichia coli [14],4 µg/mL
same,MIC,Escherichia coli [15],1 µg/mL
same,Ratio,Escherichia coli [16],4
same,MBC,[17],8 µg/mL
same,MIC,[18],1 µg/mL
same,Ratio,[19],8
same,MIC,Escherichia coli [23],0.5 µg/mL
same,MIC,Escherichia coli [24],0.5 µg/mL
same,MIC,Escherichia coli [25],0.5 µg/mL
same,MIC,Escherichia coli [26],0.25 µg/mL
same,MIC,Escherichia coli [27],0.125 µg/mL
same,MIC,Escherichia coli [28],0.125 µg/mL
same,MIC,Staphylococcus aureus [29],1 µg/mL
same,MIC,Staphylococcus aureus [30],0.5 µg/mL
same,MIC,Staphylococcus aureus [31],0.5 µg/mL
same,MIC,Staphylococcus aureus [32],0.5 µg/mL
same,MIC,Staphylococcus aureus [33],0.25 µg/mL
same,MIC,Staphylococcus aureus [34],0.125 µg/mL
same,MIC,Escherichia coli [35],0.125 µg/mL
same,MIC,Escherichia coli [36],0.25 µg/mL
same,MIC,Escherichia coli [37],0.5 µg/mL
same,MIC,Escherichia coli [38],0.5 µg/mL
same,MIC,Staphylococcus aureus [39],0.125 µg/mL
same,MIC,Staphylococcus aureus [40],0.25 µg/mL
same,MIC,Staphylococcus aureus [41],0.25 µg/mL
same,MIC,Staphylococcus aureus [42],0.5 µg/mL
same,Activity,Staphylococcus aureus [43],100%
same,Activity,Escherichia coli [44],100%
same,Activity,Staphylococcus aureus [45],Not active; Compound Induced Resistance Less Rapidly Than That Of Control Drug Linezolid
same,MIC,Staphylococcus aureus [46],1 µg/mL
same,MIC,Staphylococcus aureus [47],2 µg/mL
same,Activity,Escherichia coli [48],Not active; Compound Induced Resistance More Slowly Than Control Drug Florfenicol
same,MIC,Escherichia coli [49],1 µg/mL
same,MIC,Escherichia coli [50],2 µg/mL
same,MIC,Escherichia coli [51],4 µg/mL
same,IC50 at 72 h,[52],130 µg/mL
same,selectivity ratio,[53],130
same,Activity,[54],Non-toxic
same,Activity,[55],Non-toxic
same,Activity,[56],Non-toxic
same,Activity,[57],Non-toxic
same,Activity,[58],Non-toxic
